The source made the active and inactive calls. The rule behind the calls is not given here.
Legend:
PBMC [1] = assay: Effects of compound on IL-2 production in anti-CD3/CD28-stimulated human PBMCs assessed as increase in IL-2 level after 2 days by ELISA; type: functional, tissue-based; conditions: dose 1-10 µM, time 2.0 day
[2] = Ratio of FC for induction of IL-2 production in anti-CD3/CD28-stimulated human PBMCs at 1 uM after 24 hrs in presence of ZM-241385 and MRS-1754 to FC for induction of IL-2 production in anti-CD3/CD28-stimulated human PBMCs at 1 uM after 24 hrs in presence of ZM-241385 and absence of MRS-1754; type: functional, PBMC
PBMC [3] = assay: Effect of compound on human PBMCs assessed as reduction in AREG expression in CD4-positive T cells after 1 day by flow cytometric analysis; type: functional, cell-based; conditions: dose 1.25-5 µM
PBMC [4] = assay: Effect of compound on human PBMCs assessed as reduction in TGIT expression in CD8-positive T cells after 1 day by flow cytometric analysis; type: functional, cell-based; conditions: dose 1.25-5 µM
PBMC [5] = assay: Effect of compound on human PBMCs assessed as reduction in PD-L1 expression in CD4-positive T cells after 1 day by flow cytometric analysis; type: functional, cell-based; conditions: dose 1.25-5 µM
PBMC [6] = assay: Effect of compound on human PBMCs assessed as reduction in CTLA4 expression in non-Treg cells after 1 day by flow cytometric analysis; type: functional, cell-based; conditions: dose 0.19-6 µM
PBMC [7] = assay: Effect of compound on human PBMCs assessed as reduction in CTLA4 expression in naive Treg cells after 1 day by flow cytometric analysis; type: functional, cell-based; conditions: dose 0.19-6 µM
[8] = Effects of compound on anti-CD3/CD28-stimulated human PBMCs assessed as CD4-positive cells population at 10 uM after 4 hrs by flow cytometric analysis; type: functional, PBMC
[9] = target: Probable G-protein coupled receptor 174 (Homo sapiens, UniProt Q9BXC1); assay: Inverse agonist activity at GPR174 in anti-CD3/CD28-stimulated human PBMCs assessed as reduction in FoxP3-positive Helios-positive nTreg cells at 100 uM after 7 days by flow cytometric analysis; type: functional, tissue-based; conditions: PBMC, filed as inverse agonist, time 7.0 day
Splenocyte = assay: Effects of compound on IL-2 production in anti-CD3/CD28-stimulated wild type mouse splenocytes assessed as increase in IL-2 levels at 10 uM after 48 hrs; type: functional, cell-based
PBMC [10] = assay: Effects of compound on IL-2 production in anti-CD3/CD28-stimulated human PBMCs assessed as increase in IL-2 level after 3 days by ELISA; type: functional, tissue-based; conditions: dose 3-60 µM, time 3.0 day

Sequence of Probable G-protein coupled receptor 174 (Q9BXC1 whole entry): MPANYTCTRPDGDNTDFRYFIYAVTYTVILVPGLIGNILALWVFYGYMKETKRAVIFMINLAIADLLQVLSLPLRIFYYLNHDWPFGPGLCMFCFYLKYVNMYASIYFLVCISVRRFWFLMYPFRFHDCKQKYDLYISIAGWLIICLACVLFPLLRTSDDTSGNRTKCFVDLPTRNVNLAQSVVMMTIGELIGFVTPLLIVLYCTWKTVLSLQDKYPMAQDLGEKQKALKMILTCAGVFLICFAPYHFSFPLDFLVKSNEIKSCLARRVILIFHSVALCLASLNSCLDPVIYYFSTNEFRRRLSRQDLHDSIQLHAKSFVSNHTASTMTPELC

In the case of `CC1CCN(c2cc(N3CCN(S(=O)(=O)c4ccccc4)CC3)c([N+](=O)[O-])cc2F)CC1`, the Activity (PBMC [1]) is reported as “Dose-Dependent Effect”, the Ratio [2] is reported as 0.7 and the Activity (PBMC [3]) is reported as “Dose-Dependent Effect”. For the same molecule, the Activity (PBMC [4]) was “Dose-Dependent Effect”, the Activity (PBMC [5]) was “Dose-Dependent Effect” and the Activity (PBMC [6]) was “Dose-Dependent Effect”. For the same molecule, the Activity (PBMC [7]) was “Dose-Dependent Effect”, the Activity [8] was 46.2% and the Activity [9] was “Active”. The Activity (Splenocyte) was “Active” and the Activity (PBMC [10]) was “Dose-Dependent Effect”.
